Data set [1] concerns hMN-14IgG^(I253A)-(734scFv)2. In words: Stoichiometry of targetable complexes, In-111 IMP 246 mixed with bsAb, size exclusion HPLC. The data set is classed as binding. To be noted: 1:10 (IMP 246:bsAb) mole ratio; peak at 8.5 min. On the procedure:
(§1) This Example describes experiments designed to determine the stoichiometry of different species of targetable complexes that arise when the targetable divalent construct IMP 246 is mixed with bsAbs hMN-14IgG^(I253A)-(734scFv)2, and hMN-14IgG-(734scFv)2.
(§2) The peptide IMP 246 was dissolved in 100 mL of a solution which contained 0.418 g citric acid and 10.06 g of HPCD buffered at pH 4.3. The solution was filter sterilized through a 0.22 ? m Millex GV filters in 1 mL aliquots into vials that were immediately frozen and lyophilized.
(§3) The IMP 246 was labeled with In-111 as follows. The In-111 was diluted with 0.5 mL water and added to a lyophilized IMP 246 kit. The solution was allowed to incubate at room temperature for 10 min. A 1.5 mL aliquot of a solution containing […] in 0.5 M NaOAc buffer pH 7.17 was then added to the kit.
(§4) The In-111-labelled IMP 246 was mixed with bsAb in a 1:10 (IMP 246:bsAb) mole ratio and then examined by size exclusion HPLC. When mixed with the mutant bsAb, i.e., hMN-14IgG^(I253A)-(734scFv)2, about 90% of the In-111 label was found at a clean sharp peak at 8.5 min (FIG. 8A). When mixed with hMN-14IgG-(734scFv)2, the peak was somewhat broader, comprised about 83% of the In-111 label and was found at 7.5 min (FIG. 8B). In contrast, the antibody:peptide complexes formed when IMP 192 was used were found at 9.5 min (FIG. 7).
On the technique in general: SEC sorts molecules by how far they enter the pores of the column.

Another data set concerns hMN-14IgG-(734scFv)2. Described as above. The data set is classed as binding. To be noted: 1:10 (IMP 246:bsAb) mole ratio; peak at 7.5 min. On the procedure:
as §1, §2, §3, §4

Data set [2] in a line: Stability of IMP 246 and its complex in fresh mouse serum, size exclusion HPLC. Particulars: 37° C. The class given is in vitro ADME. On the procedure: […] A 10 μL aliquot was removed and mixed with 5 μL of 3.2 mg/mL 14IgG^(I253A)-(734scFv)2 and diluted with 40 μL water. A 10 μL aliquot of the diluted mixture was then examined by size exclusion HPLC.
A 4 μL aliquot of the labeled peptide solution was mixed with 10 μL of the 3.2 mg/mL hMN-14 IgG^(I253A)-(734scFv)2 and diluted in 400 μL of fresh mouse serum. The serum sample was incubated at 37° C. for 16 hr and then analyzed by size exclusion HPLC.
Three broad peaks comprised about 20%, 41% and 37% of the area under the curve of the HPLC tracing.

In another data set the test system is Raji cells. In words: Apoptosis of Raji cells after cross-linking of bound hA20IgG-(734scFv)2. The data set is classed as cell-based. Particulars: Raji cells incubated with hA20IgG-(734scFv)2, 3 days, 37 degrees C. The procedure:
Raji cells in culture are incubated with hA20IgG-(734scFv)2. To one set of wells is added IMP-246 to cross-link molecules of hA20IgG-(734scFv)2 bound to CD20 on the surface of the Raji cells. A second set of wells to which IMP-246 is not added serve as controls, and both sets of wells incubated at 37 degrees C.
An average of 5 molecules IMP-222 are conjugated to human serum albumin (hAlb-222). The experiment described in the paragraph above is repeated, but hAb-222 is used to cross-link molecules of hA20IgG-(734scFv)2 bound to CD20 on the surface of the Raji cells, in place of IMP-246.

Primed or numbered codes have the meaning given here. DTPA′ = diethylenetriaminepentaacetic acid

With “[Ac-Cys-Lys(DTPA)-Tyr-Lys(DTPA)-NH2]2 (Ac-CK(DTPA′)YK(DTPA′)-NH2; also: disulfide-linked homodimer of two chains, disulfide at 1, other end not in the chain) [IMP 246]”, the “In-111 label found in complex peak” value in data set [1] is listed as “about 90%”; with hMN-14IgG-(734scFv)2 it was “about 83%”. Further, in data set [2] (in presence of bi-specific antibody, mouse serum, 16 hr), the “area under the curve of HPLC tracing in distinct peak at predicted position” value is given as no less than 90%. Moreover, the “stability in mouse serum” value in data set [2] (peptide alone, 16 hours) is “unstable”. In addition, in the data set on Raji cells, the apoptosis entry is on record as “extensive apoptosis”.

(Values after patent US7951921B2, “Multivalent carriers of bi-specific antibodies” (Immunomedics, Inc., priority 2003, dated 2011).)
